Assay results as given in US20220395458A1, “PREVENTION OF VISIBLE PARTICLE FORMATION IN AQUEOUS PROTEIN SOLUTIONS” (Hoffmann-La Roche Inc., priority 2019, published 2022).
Values after ≈ are worked out from the molar mass of the structure shown.

Assays:
[1] = Visible particles in E/P box (Ph. Eur. 2.9.20) after spiking FFA to inorganic salt solutions; type: physicochemical; settings: FFA below solubility limit; for Visible particles E/P d0: d0 directly after spiking
Method: Aqueous stock solutions were prepared in 0.02% PS20 (Croda. Edison, N.J., USA) at defined concentrations of (1) 5 mg/mL and (2) 12.5 mg/mL (lauric acid. Sigma-Aldrich/Merck. Darmstadt. Del.) or (1) 1.5 mg/mL and (2) 5 mg/mL (myristic acid, Sigma-Aldrich/Merck. Darmstadt. Del.) as previously described by Doshi et al.^6 The procedure was adapted that the FFA/PS20 stock solution was sterile filtered using 0.22 μm PVDF Steriflip filters (Merck Millipore. Darmstadt. Del.) before 1:10 dilution and subsequently homogenized without a magnetic stirrer using a Heidolph Rotamax 120 orbital shaker (Schwabach. Del.) at 100 rpm at 25° C., for 1 hour. After 1:500 dilution, the solution was homogenized for 1 hour at 25° C., before homogenization at 2-8° C., overnight, 12-40 μL of stock solution were used for spiking experiments yielding final FFA concentrations of (1) 10 μg/mL and (2) 25 μg/mL (lauric acid) or (1) 3 μg/mL and (2) 10 μg/mL (myristic acid). Dilutions with stock solutions 1 yield FFA concentration below their solubility limit, whereas stock solutions 2 act as positive control confirmed by the formation of visible particles. FFA concentrations were verified for selected by LC-MS samples acc. Honemann et al.^7
(§1) Aqueous stock solutions of different salts were prepared at 1 mg/mL and used for spiking experiments to final concentrations between 250 mg/mL and 1 g/mL. NaCl, NaAlO2. NaBO2. B2O3, and CaCl2 (Sigma-Aldrich/Merck. Darmstadt. Del.) were selected as their dissolution products (ions) represent typical glass leachables from Type I borosilicate glass. The pH of the NaAlO2 and NaBO2 stock solutions was adjusted to pH 6 using HCl and subsequently filtered using 0.22 μm PVDF Sterivex filters (Merck Millipore. Darmstadt. Del.) and true elemental concentrations were determined by inductively-coupled plasma mass spectrometry (ICP-MS). Elemental concentrations were 0,048 μg/mL Aluminium and 295 μg/mL sodium and 78 μg/mL boron and 168 μg/mL, respectively. Spiking experiments with FFA were performed in duplicates.
(§2) Samples were analyzed by visual inspection on a Seidenader V 90-T instrument (Seidenader Maschinenbau GmbH. Markt Schwaben. Del.) as previously described by Ditter et al.^9 and using a black/white panel according Ph. Eur. 2.9.20.^10 and classified as Many particles (>7). Few particles (4-7), or Practically free of particles (0-4) in E/P box, and Many particles (>10). Few particles (6-10). Essentially free of particles (1-5), or Free of particles (0) by Seidenader.
(§3) pH of all solutions was verified. Samples were visually inspected immediately after spiking and regularly for up to 7 days. Further characterization by HIAC, turbidity, FTIR, and SEM-EDX was performed on day 1 only. All samples were analyzed when equilibrated to room temperature (4 h).
(§4) Different inorganic salt solutions, i.e. CaCl2. NaAlO2. NaBO2. B2O3, and NaCl, were prepared simulating artificial glass leachables. Myristic and lauric acid, as main degradation product from hydrolytic PS20 degradation, were added at concentrations below their solubility limit and samples were analyzed for visible particles. SVP, and turbidity. Samples were compared against relevant controls and the pH verified at pH 6.

[2] = Visible particles by Seidenader after spiking FFA to inorganic salt solutions; type: physicochemical; settings: for Visible particles in Seidenader: dependent on salt concentration over time, much lesser extent than CaCl2 and NaAlO2; for Visible particles Seidenader d0 / Visible particles Seidenader d1 / Visible particles Seidenader d2 / Visible particles Seidenader d7: FFA below solubility limit; for Visible particles Seidenader d0: d0 directly after spiking
Method: Del.) at 100 rpm at 25° C., for 1 hour. […] FFA concentrations were verified for selected by LC-MS samples acc. Honemann et al.^7
as §1, with “Aqueous stock solutions of different salts were prepared at 1 mg/mL and used for spiking experiments to final concentrations between 250 mg/mL and 1 g/mL.” left out, “Elemental concentrations were 0,048 μg/mL Aluminium and 295 μg/mL sodium and 78 μg/mL boron and 168 μg/mL, respectively.” left out
as §2, §3, §4

[3] = in water at room temperature; cited from earlier work
[4] = CaCl2 250 μg/mL (Ca2+ 90 μg/mL)
[5] = CaCl2 500 μg/mL (Ca2+ 180 μg/mL)
[6] = CaCl2 1000 μg/mL (Ca2+ 360 μg/mL)
[7] = NaAlO2 nominal 250 μg/mL (0.012 μg/mL ion)
[8] = NaAlO2 nominal 500 μg/mL (0.024 μg/mL ion)
[9] = NaAlO2 nominal 1000 μg/mL (0.048 μg/mL ion)

Visible particles E/P d7 [1, 4]: xxx (Many particles (>7, xxx))
Visible particles E/P d1 [1, 5]: xx (Few particles (4-7, xx))
Visible particles E/P d7 [1, 5]: xxx (Many particles (>7, xxx))
Visible particles E/P d1 [1, 6]: xxx (Many particles (>7, xxx))
Visible particles E/P d2 [1, 6]: xxx (Many particles (>7, xxx))
Visible particles E/P d7 [1, 6]: xxx (Many particles (>7, xxx))
Visible particles E/P d7 [1, 9]: xxx (Many particles (>7, xxx))
Visible particles in Seidenader ([2]; B2O3 solution): visible particles were obtained
Visible particles Seidenader d0 [2, 4]: xxx (Many particles (>10, xxx))
Visible particles Seidenader d1 [2, 4]: xxx (Many particles (>10, xxx))
Visible particles Seidenader d2 [2, 4]: xxx (Many particles (>10, xxx))
Visible particles Seidenader d7 [2, 4]: xxx (Many particles (>10, xxx))
Visible particles Seidenader d0 [2, 5]: xxx (Many particles (>10, xxx))
Visible particles Seidenader d1 [2, 5]: xxx (Many particles (>10, xxx))
Visible particles Seidenader d2 [2, 5]: xxx (Many particles (>10, xxx))
Visible particles Seidenader d7 [2, 5]: xxx (Many particles (>10, xxx))
Visible particles Seidenader d0 [2, 6]: xxx (Many particles (>10, xxx))
Visible particles Seidenader d1 [2, 6]: xxx (Many particles (>10, xxx))
Visible particles Seidenader d2 [2, 6]: xxx (Many particles (>10, xxx))
Visible particles Seidenader d7 [2, 6]: xxx (Many particles (>10, xxx))
Visible particles Seidenader d7 [2, 7]: xxx (Many particles (>10, xxx))
Visible particles Seidenader d7 [2, 8]: xxx (Many particles (>10, xxx))
Visible particles Seidenader d7 [2, 9]: xxx (Many particles (>10, xxx))
Visible particles in Seidenader ([2]; NaBO2 solution): visible particles were obtained
SMILES: CCCCCCCCCCCCCC(=O)O [Myristic acid, myristic acid]
Visible particles E/P d0 [1, 4]: / (Practically free of particles (0-4, /) in E/P box)
Visible particles E/P d1 [1, 4]: / (Practically free of particles (0-4, /) in E/P box)
Visible particles E/P d2 [1, 4]: / (Practically free of particles (0-4, /) in E/P box)
Visible particles E/P d0 [1, 5]: / (Practically free of particles (0-4, /) in E/P box)
Visible particles E/P d0 [1, 6]: / (Practically free of particles (0-4, /) in E/P box)
Visible particles E/P d0 [1, 7]: / (Practically free of particles (0-4, /) in E/P box)
Visible particles E/P d1 [1, 7]: / (Practically free of particles (0-4, /) in E/P box)
Visible particles E/P d2 [1, 7]: / (Practically free of particles (0-4, /) in E/P box)
Visible particles E/P d7 [1, 7]: / (Practically free of particles (0-4, /) in E/P box)
Visible particles E/P d0 [1, 8]: / (Practically free of particles (0-4, /) in E/P box)
Visible particles E/P d1 [1, 8]: / (Practically free of particles (0-4, /) in E/P box)
Visible particles E/P d2 [1, 8]: / (Practically free of particles (0-4, /) in E/P box)
Visible particles E/P d0 [1, 9]: / (Practically free of particles (0-4, /) in E/P box)
Visible particles E/P d1 [1, 9]: / (Practically free of particles (0-4, /) in E/P box)
Visible particles Seidenader d1 [2, 7]: x (Essentially free of particles (1-5, x))
Visible particles Seidenader d2 [2, 7]: x (Essentially free of particles (1-5, x))
Visible particles Seidenader d2 [2, 8]: x (Essentially free of particles (1-5, x))
Visible particles Seidenader d0 [2, 9]: x (Essentially free of particles (1-5, x))
solubility level [3]: 7 µg/mL (≈ 30.7 µM)
